Reference: US20220298145A1, “BRAF INHIBITORS AS PARADOX BREAKERS” (Hoffmann-La Roche Inc., priority 2019, published 2022)
Read-outs that look alike come from different tables or passages of the source.

What was measured:
BRAF (V600E) = BRAF (V600E) (Homo sapiens, UniProt P15056, V600E); assay: Kd for RAF kinases: BRAF (V600E); type: binding
BRAF = BRAF (Homo sapiens, UniProt P15056); assay: Kd for RAF kinases: BRAF; type: binding
CRAF = CRAF (Homo sapiens, UniProt P04049); assay: Kd for RAF kinases: CRAF; type: binding
Sequence of CRAF (P04049 whole entry): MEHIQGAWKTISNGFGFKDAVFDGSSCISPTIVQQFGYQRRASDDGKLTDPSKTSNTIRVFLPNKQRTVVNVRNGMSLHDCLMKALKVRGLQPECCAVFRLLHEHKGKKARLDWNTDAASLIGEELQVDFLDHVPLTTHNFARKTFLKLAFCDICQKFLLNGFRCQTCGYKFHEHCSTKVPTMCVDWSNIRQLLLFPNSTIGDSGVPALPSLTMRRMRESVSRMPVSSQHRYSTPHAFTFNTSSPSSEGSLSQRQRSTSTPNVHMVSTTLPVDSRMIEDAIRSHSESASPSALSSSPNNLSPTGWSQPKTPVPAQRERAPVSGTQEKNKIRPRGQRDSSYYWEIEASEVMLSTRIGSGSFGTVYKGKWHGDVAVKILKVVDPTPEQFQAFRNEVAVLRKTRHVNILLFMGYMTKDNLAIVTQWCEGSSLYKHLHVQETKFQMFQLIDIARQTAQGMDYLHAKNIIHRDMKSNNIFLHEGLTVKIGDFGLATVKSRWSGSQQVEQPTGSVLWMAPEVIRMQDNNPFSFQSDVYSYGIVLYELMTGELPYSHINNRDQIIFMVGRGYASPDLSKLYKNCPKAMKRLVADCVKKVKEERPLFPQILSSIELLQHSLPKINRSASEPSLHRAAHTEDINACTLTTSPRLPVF

[1] = tested on: ERK 1,2 phosphorylation in A375 cells expressing V600E mutated BRAF; assay: HTRF assay for P-ERK determination in A375 cells (BRAF inhibition); type: cell-based; conditions: Homo sapiens, A-375, 1 h, read-out: pERK IC50 A375
From the text: (§1) DMEM no-phenol red medium supplemented with L-glutamine was purchased from (Thermo Fisher Scientific). Fetal bovine serum (FBS) was purchased from VWR. Advanced ERK phospho-T202/Y204 kit-10,000 tests was purchased from Cisbio cat #64AERPEH. A375 and HCT116 cells were originally obtained from ATCC and banked by the Roche repository.
A375 is a cellular cancer model expressing V600E mutated BRAF and HCT116 a cellular cancer model expressing WT BRAF. […] ERK 1,2 phosphorylation (terminal member of the phosphorylation cascade of the MAPK pathway) is hereafter reported as main readout for the activation status of the MAPK pathway. Prior to the assay, A375 and HCT116 cell lines are maintained in DMEM no-phenol red medium supplemented with 10% fetal bovine serum (FBS). […] Briefly, 8000 cells/well in 12 μl media/well are plated in the 384-well plate and left overnight in the incubator (at 37° C. with 5% CO2-humidified atmosphere), the following day the plate is treated in duplicate with test compounds, dabrafenib and PLX8394 (the latter two as controls) at the following final drug concentrations: 10 μM-3 μM-1 μM-0.3 μM-0.1 μM-0.03 μM-0.01 μM-0.003 μM-0.001 μM, all wells are subjected to DMSO normalization and drug incubation occurs for 1 hour. Then, 4 μl of a 4× lysis buffer supplied with the kit are added to the wells, the plate is then centrifuged for 30 second (300 rcf) and incubated on a plate shaker for 1 h at RT.
(§2) At the end of the incubation 4 μL/well of advanced P-ERK antibody solution (prepared according to manufacturer's instruction) followed by 4 μL/well of criptate P-ERK antibody solution (prepared according to manufacturer's instruction) (Cisbio cat #64AERPEH) are added to test wells.
(§3) In order to allow proper data normalization control wells non drug treated reported in the following table are always included in each plate (according to manufacturer's instruction):
(§4) The plate is then centrifuged at 300 rcf for 30 second, sealed to prevent evaporation and incubated overnight in the dark at room temperature.
(§5) The obtained fluorescence values are processed according to the formula Ratio=Signal (620 nm)/Signal (625 nm)*10000 then the average of the ratio on the blank is subtracted to all values.
Data are normalized in the case of A375 cells (BRAF inhibition) considering the average of the ratio (blank subtracted) derived by DMSO only treated cells as 100% and by considering the average of the ratio (blank subtracted) derived by 10 uM dabrafenib treated cells as 0%. Mean of the normalized points are fitted with sigmoidal curve and IC50 determined.

[2] = tested on: ERK 1,2 phosphorylation in HCT116 cells expressing WT BRAF; assay: HTRF assay for P-ERK determination in HCT116 cells (paradoxical BRAF activation); type: cell-based; conditions: for Emax: Homo sapiens, HCT-116, read-out: Percentage of maximum paradox inducing effect from dabrafenib; for EC50: read-out: P-ERK EC50 conc. at which the compound induces p-ERK activation of 50% of that induced by dabrafenib (Positive control paradox inducer) HCT-116, HCT-116 cells, 1 hour drug incubation, not applicable = activation does not reach 50% of dabrafenib maximum
From the text: as §1, with “repository. 384-well microplates were purchased from Greiner Bio-One, 384-well, (With Lid, HiBase, Low volume cat 784-080).” for “repository.”
A375 is a cellular cancer model expressing V600E mutated BRAF and HCT116 a cellular cancer model expressing WT BRAF. First generation BRAF inhibitors such as e.g. dabrafenib induce a paradox effect on tumour cells in that they inhibit the growth of V600E mutated BRAF cells (such as e.g. A375), while they activate growth in WT BRAF cells (such as e.g. HCT 116). ERK 1,2 phosphorylation (terminal member of the phosphorylation cascade of the MAPK pathway) is hereafter reported as main readout for the activation status of the MAPK pathway. Prior to the assay, A375 and HCT116 cell lines are maintained in DMEM no-phenol red medium supplemented with 10% fetal bovine serum (FBS). Following compound treatment, P-ERK levels are determined by measuring FRET fluorescence signal induced by selective binding of 2 antibodies provided in the mentioned kit (Cisbio cat #64AERPEH) on ERK protein when phosphorylated at Thr202/Tyr204. Briefly, 8000 cells/well in 12 μl media/well are plated in the 384-well plate and left overnight in the incubator (at 37° C. with 5% CO2-humidified atmosphere), the following day the plate is treated in duplicate with test compounds, dabrafenib and PLX8394 (the latter two as controls) at the following final drug concentrations: 10 μM-3 μM-1 μM-0.3 μM-0.1 μM-0.03 μM-0.01 μM-0.003 μM-0.001 μM, all wells are subjected to DMSO normalization and drug incubation occurs for 1 hour. Then, 4 μl of a 4× lysis buffer supplied with the kit are added to the wells, the plate is then centrifuged for 30 second (300 rcf) and incubated on a plate shaker for 1 h at RT.
as §2, §3, §4
The plate is then analyzed and fluorescence emission value collected through a Pherastast FSX (BMG Labtech) apparatus at […].
as §5
Data are normalized in the case of HCT116 cells (BRAF activation) considering the average of the ratio (blank subtracted) derived by DMSO only treated cells as 0% and by considering the average of the ratio (blank subtracted) derived by dabrafenib treated cells at the concentration which provides the highest signal as 100%. Individual points are fitted with either sigmoidal or bell shape curves, and the percentage of activation compared to maximum dabrafenib-mediated activation is determined. The EC50 is the concentration at which activation equal to 50% of the maximum achieved by dabrafenib is obtained.
The Percentage of Maximum paradox inducing effect from dabrafenib is determined by evaluating the percentage at which the test compound induce its maximum P-ERK signal as percentage of the highest signal produced by dabrafenib within the dose range tested.

Sequence of BRAF (P15056 whole entry): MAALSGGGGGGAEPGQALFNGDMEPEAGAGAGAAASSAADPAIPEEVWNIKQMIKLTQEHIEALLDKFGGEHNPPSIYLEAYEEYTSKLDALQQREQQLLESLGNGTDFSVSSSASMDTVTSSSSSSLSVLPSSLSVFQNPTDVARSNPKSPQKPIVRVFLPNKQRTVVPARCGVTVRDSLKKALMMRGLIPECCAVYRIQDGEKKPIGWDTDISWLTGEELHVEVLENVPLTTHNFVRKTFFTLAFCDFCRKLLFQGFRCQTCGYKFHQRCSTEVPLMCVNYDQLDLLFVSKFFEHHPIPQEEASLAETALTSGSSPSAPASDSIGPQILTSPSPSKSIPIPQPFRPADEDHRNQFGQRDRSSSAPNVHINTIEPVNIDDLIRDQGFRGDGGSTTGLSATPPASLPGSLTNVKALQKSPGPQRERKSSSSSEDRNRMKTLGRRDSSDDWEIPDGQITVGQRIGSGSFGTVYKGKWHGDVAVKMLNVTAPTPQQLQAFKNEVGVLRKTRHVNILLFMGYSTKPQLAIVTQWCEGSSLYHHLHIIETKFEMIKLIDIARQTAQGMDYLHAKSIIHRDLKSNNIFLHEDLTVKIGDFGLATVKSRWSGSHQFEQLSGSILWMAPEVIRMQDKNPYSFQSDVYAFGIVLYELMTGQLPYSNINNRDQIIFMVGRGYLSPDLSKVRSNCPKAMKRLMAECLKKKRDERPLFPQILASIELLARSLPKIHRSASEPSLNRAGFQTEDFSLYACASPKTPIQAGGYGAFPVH
Sequence of BRAF (V600E) (P15056 whole entry V600E): as the sequence (P15056 whole entry) above, with V600E counted along it

Row | SMILES | Kd (BRAF (V600E)) [nM] | Kd (BRAF) [nM] | Kd (CRAF) [nM] | IC50 [1] [nM] | Emax [2] [%] | EC50 [2] [nM] | Kd (BRAF (V600E); read-out: Kd BRAF (V600E)) [nM] | Kd (BRAF; read-out: Kd BRAF) [nM]
1 | CCN(C)S(=O)(=O)Nc1ccc(Cl)c(Oc2ccc3ncn(C)c(=O)c3c2)c1C#N [Example 2, 6-[6-chloro-2-cyano-3-[[ethyl(methyl)sulfamoyl]amino]phenoxy]-3-methyl-4-oxo-quinazoline] | 36.8 | 30.4 | 5.4 | 28.6 | 69 | > 1000 |  | 
2 | CCC(C)S(=O)(=O)Nc1cccc(Oc2ccc3ncn(C)c(=O)c3c2)c1C#N (racemic) [Example 10, (RS)—N-[2-cyano-3-(3-methyl-4-oxo-quinazolin-6-yl)oxy-phenyl]butane-2-sulfonamide] | 14.4 | 3.9 | 6.8 | 8.8 | 21 |  |  | 
3 | Cn1cnc2ccc(Oc3c(Cl)ccc(NS(=O)(=O)N4CCCC4)c3C#N)cc2c1=O [Example 4, N-[4-chloro-2-cyano-3-(3-methyl-4-oxo-quinazolin-6-yl)oxy-phenyl]pyrrolidine-1-sulfonamide] | 4.6 | 2.1 | 1.6 | 34.3 | 65 | 714 |  | 
4 | Cn1cnc2ccc(Oc3c(F)ccc(NS(=O)(=O)C4CCCC4)c3C#N)cc2c1=O [Example 16, N-[2-cyano-4-fluoro-3-(3-methyl-4-oxo-quinazolin-6-yl)oxy-phenyl]cyclopentanesulfonamide] | 1.9 | 1 | 0.7 | 2.3 | 70 | 152 |  | 
5 | CCN(C)S(=O)(=O)Nc1cccc(Nc2ccc3ncn(C)c(=O)c3c2)c1C#N [Example 11, 6-[2-cyano-3-[[ethyl(methyl)sulfamoyl]amino]anilino]-3-methyl-4-oxo-quinazoline] |  |  | 52.3 | 19.7 | 61 | > 1000 | 26.5 | 11.6
6 | Cn1cnc2ccc(Oc3cccc(NS(=O)(=O)N4CC[C@@H](F)C4)c3C#N)cc2c1=O [Example 7, (3R)—N-[2-cyano-3-(3-methyl-4-oxo-quinazolin-6-yl)oxy-phenyl]-3-fluoro-pyrrolidine-1-sulfonamide] | 4.5 | 8.9 | 8.9 | 26.2 | 32 |  |  | 
7 | Cn1cnc2ccc(Nc3c(Cl)ccc(NS(=O)(=O)N4CCCC4)c3C#N)cc2c1=O [Example 14, N-[4-chloro-2-cyano-3-[(3-methyl-4-oxo-quinazolin-6-yl)amino]phenyl]pyrrolidine-1-sulfonamide] |  |  | 1.5 | 13.7 | 74 | 204 | 0.7 | 1.4
8 | CN(C)S(=O)(=O)Nc1ccc(F)c(Oc2ccc3ncn(C)c(=O)c3c2)c1C#N [Example 17, 6-[2-cyano-3-(dimethylsulfamoylamino)-6-fluoro-phenoxy]-3-methyl-4-oxo-quinazoline] | 4.3 | 1.7 | 3 | 2.6 | 71 | 970 |  | 
9 | Cn1cnc2ccc(Oc3cccc(NS(=O)(=O)C4CCCCC4)c3C#N)cc2c1=O [Example 9, N-[2-cyano-3-(3-methyl-4-oxo-quinazolin-6-yl)oxy-phenyl]cyclohexanesulfonamide] |  |  | 0.8 | 13.9 | 44 |  | 4 | 2.4
10 | Cn1cnc2ccc(Oc3cccc(NS(=O)(=O)C4CCCC4)c3C#N)cc2c1=O [Example 8, N-[2-cyano-3-(3-methyl-4-oxo-quinazolin-6-yl)oxy-phenyl]cyclopentanesulfonamide] | 7 | 3.3 | 1.8 | 5.3 | 63 | 412 |  | 
11 | CCN(C)S(=O)(=O)Nc1ccc(F)c(Oc2ccc3ncn(C)c(=O)c3c2)c1C#N [Example 1, 6-[2-cyano-3-[[ethyl(methyl)sulfamoyl]amino]-6-fluoro-phenoxy]-3-methyl-4-oxo-quinazoline] |  |  | 6.3 | 5.5 | 56 | > 1000 | 3.4 | 1.6
12 | Cn1cnc2ccc(Oc3c(Cl)ccc(NS(=O)(=O)N4CC[C@@H](F)C4)c3C#N)cc2c1=O [Example 3, (3R)—N-[4-chloro-2-cyano-3-(3-methyl-4-oxo-quinazolin-6-yl)oxy-phenyl]-3-fluoro-pyrrolidine-1-sulfonamide] | 6.3 | 10 | 9.4 | 14.8 | 61 | > 1000 |  | 
13 | CCN(C)S(=O)(=O)Nc1ccc(Cl)c(Nc2ccc3ncn(C)c(=O)c3c2)c1C#N [Example 13, 6-[6-chloro-2-cyano-3-[[ethyl(methyl)sulfamoyl]amino]anilino]-3-methyl-4-oxo-quinazoline] | 10 | 4.3 | 6.8 | 14.8 | 67 | > 1000 |  | 
14 | Cn1cnc2ccc(Oc3c(F)ccc(NS(=O)(=O)N4CCCC4)c3C#N)cc2c1=O [Example 15, N-[2-cyano-4-fluoro-3-(3-methyl-4-oxo-quinazolin-6-yl)oxy-phenyl]pyrrolidine-1-sulfonamide] |  |  | 0.8 | 1.6 | 63 | 172 | 0.9 | 0.4
15 | Cn1cnc2ccc(Nc3cccc(NS(=O)(=O)N4CC[C@@H](F)C4)c3C#N)cc2c1=O [Example 12, (3R)—N-[2-cyano-3-[(3-methyl-4-oxo-quinazolin-6-yl)amino]phenyl]-3-fluoro-pyrrolidine-1-sulfonamide] | 7.5 | 2 | 9.8 | 9.2 | 49 |  |  | 
